Reference: paper PMC7056829, “Reversal Effect of ALK Inhibitor NVP-TAE684 on ABCG2-Overexpressing Cancer Cells” (Frontiers in Oncology, 2020)

What was measured:
ABCG2 [1] = molecular target: T1, ABCG2 (Homo sapiens, UniProt Q9UNQ0); assay: ATPase stimulation in ABCG2-overexpressing membrane vesicles; format: biochemical; parameters: ABCG2 membrane vesicles that overexpressed ABCG2
T1 sequence (Q9UNQ0 1-655): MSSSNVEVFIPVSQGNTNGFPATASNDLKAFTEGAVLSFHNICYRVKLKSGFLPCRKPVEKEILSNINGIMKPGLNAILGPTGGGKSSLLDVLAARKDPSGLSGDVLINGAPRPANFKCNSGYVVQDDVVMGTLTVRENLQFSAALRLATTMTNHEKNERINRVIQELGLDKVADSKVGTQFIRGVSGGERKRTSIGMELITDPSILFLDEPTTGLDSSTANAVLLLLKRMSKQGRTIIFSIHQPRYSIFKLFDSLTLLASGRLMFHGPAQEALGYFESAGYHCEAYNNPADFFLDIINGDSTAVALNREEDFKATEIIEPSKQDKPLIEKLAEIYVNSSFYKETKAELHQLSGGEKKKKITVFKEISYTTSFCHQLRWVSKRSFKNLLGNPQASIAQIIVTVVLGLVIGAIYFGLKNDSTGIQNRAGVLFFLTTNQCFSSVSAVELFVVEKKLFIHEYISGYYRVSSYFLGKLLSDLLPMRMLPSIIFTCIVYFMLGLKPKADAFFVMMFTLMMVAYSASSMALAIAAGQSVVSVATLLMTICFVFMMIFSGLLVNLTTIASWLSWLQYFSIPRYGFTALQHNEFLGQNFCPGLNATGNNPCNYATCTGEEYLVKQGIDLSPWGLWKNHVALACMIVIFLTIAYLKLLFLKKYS

ABCG2 [2] = molecular target: T1, ABCG2

Compound	EC50 (ABCG2 [1]) [nM]	[3H]-mitoxantrone accumulation and efflux in NCI-H460/MX20 versus parental NCI-H (ABCG2 [2])
COc1cc(N2CCC(N3CCN(C)CC3)CC2)ccc1Nc1ncc(Cl)c(Nc2ccccc2S(=O)(=O)C(C)C)n1 [NVP-TAE684]	91	
O=C1c2c(O)ccc(O)c2C(=O)c2c(NCCNCCO)ccc(NCCNCCO)c21 [Mitoxantrone]		NVP-TAE684 significantly reduced the extrusion of [^3H]-mitoxantrone in NCI-H460/MX20 cells
